The values below come from US8476255B2, “Histone deacetylase inhibitors” (Orchid Chemicals & Pharmaceuticals Limited, priority 2007, dated 2013).

SMILES strings stand for the structures.

For experiment [1], the system named is NCIH460 (lung) cells. Put plainly: Anti-cancer screen (MTT), NCIH460. To be noted: Homo sapiens, NCI-H460, NCIH460, 48 hours, MTT; for GI50: read-out: Cell growth inhibition NCIH460 (Lung) GI50; for LC50: read-out: Cell growth inhibition NCIH460 (Lung) LC50; for IC (TGI): read-out: Cell growth inhibition NCIH460 (Lung) TGI. The format is cell-based. In a few lines:
(§1)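 Five-point MTT cytotoxicity test with 48 h compound exposure (final 0.01–100 μM, triplicate) in DMEM with 10% FBS, using a T0 viability plate and SAHA as reference standard.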

The test system of experiment [2] is acetylated Tubulin. Put plainly: Tubulin acetylation, sandwich ELISA in HCT116 lysate. The class given is cell-based. As to conditions: HCT116, 4 hours. On the procedure: (§2) Acetylated histone (H3), acetylated Tubulin and p21 levels were detected in cell lysate by sandwich ELISA method (Cell Signaling Technology, USA, Cat No: 7232, 7204 & 7167 respectively) by following manufacturer's instructions. Briefly, colon cancer cells (HCT116. 10,000/well) were incubated with test compound (1 and 10 μM) or medium (control) for 4 hours at 37° C. in CO2 incubator. The incubation lasted 18 hours for p21 induction. After incubation, cell lysates were prepared in cell lysis buffer by sonication on ice. The lysates were collected after centrifugation and subjected to ELISA test procedure. 100 μL of each diluted cell lysate in dilution buffer (1:1) was added to appropriate capture antibody coated microwells and incubated overnight at 4° C. After washing, 100 μL of detection antibody was added for 1 hour at 37° C. After second washing, 100 μL of HRP-linked secondary antibody was added for 30 min at 37° C. Finally, after appropriate washing, 100 μL of TMB substrate was added for 10 min at 37° C. followed by 100 μL of stop solution. The absorbance of individual wells was read using a spectrophotometer at 450 nm (A450).

Experiment [3] has as its system HCT 116 (colon) cells. The experiment can be described thus: Anti-cancer screen (MTT), HCT 116. The class given is cell-based. To be noted: Homo sapiens, HCT-116, HCT116, 48 hours, MTT; for GI50: read-out: Cell growth inhibition HCT116 (Colon) GI50; for CC50: read-out: Cell growth inhibition HCT116 (Colon) LC50; for IC (TGI): read-out: Cell growth inhibition HCT116 (Colon) TGI. In a few lines:
as §1

Experiment [4] has as its system NCIH460, HCT116 and U251 cells. The experiment can be described thus: Anti-cancer screen, mean GI50 over cell lines. The class given is cell-based. To be noted: mean over cell lines; read-out: Cell growth inhibition Mean GI50. In a few lines: as §1
Experiment [5] relates to U251 (glioma) cells. The experiment can be described thus: Anti-cancer screen (MTT), U251. The class given is cell-based. To be noted: Homo sapiens, U-251, U251, 48 hours, MTT; for GI50: read-out: Cell growth inhibition U251 (Glioma) GI50; for LC50 (concentration giving 50% net cell kill relative to the time-zero cell count): read-out: Cell growth inhibition U251 (Glioma) LC50; for IC (TGI): read-out: Cell growth inhibition U251 (Glioma) TGI. A digest of the protocol: as §1

The test system of experiment [6] is p21. Put plainly: p21 induction, sandwich ELISA in HCT116 lysate. The class given is cell-based. As to conditions: HCT116, 18 hours. The procedure:
as §2

For experiment [7], the target named is recombinant HDAC1 enzyme (Homo sapiens (Human), UniProt Q13547). Put plainly: HDAC1 inhibitory activity (isoform selectivity). The class given is biochemical. As to conditions: read-out: HDAC1 inhibition (IC50). The procedure: The assay was carried out, as previously described using recombinant HDAC1 enzyme (BIOMOL, USA) and following manufacturer's instructions.

In experiment [8] the test system is HDAC (Mouse Liver Extract). The experiment can be described thus: HDAC inhibition assay using Boc-Lys(Ac)-AMC substrate. The class given is biochemical. As to conditions: mouse liver enzyme. A digest of the protocol:
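Released AMC measured at 360 nm excitation, 460 nm emission after 15-30 min trypsin development at 37° C. Preceding deacetylation: mouse liver extract with acetylated-lysine AMC substrate, 30 min at 37° C after 5-min preincubation; blanks were buffer alone and substrate alone.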

In experiment [9] the test system is Acetylated histone (H3). The experiment can be described thus: Histone (H3) acetylation, sandwich ELISA in HCT116 lysate. As to conditions: HCT116, 4 hours. The class given is cell-based. On the procedure: as §2

Chain of recombinant HDAC1 enzyme (Q13547 whole entry, canonical isoform): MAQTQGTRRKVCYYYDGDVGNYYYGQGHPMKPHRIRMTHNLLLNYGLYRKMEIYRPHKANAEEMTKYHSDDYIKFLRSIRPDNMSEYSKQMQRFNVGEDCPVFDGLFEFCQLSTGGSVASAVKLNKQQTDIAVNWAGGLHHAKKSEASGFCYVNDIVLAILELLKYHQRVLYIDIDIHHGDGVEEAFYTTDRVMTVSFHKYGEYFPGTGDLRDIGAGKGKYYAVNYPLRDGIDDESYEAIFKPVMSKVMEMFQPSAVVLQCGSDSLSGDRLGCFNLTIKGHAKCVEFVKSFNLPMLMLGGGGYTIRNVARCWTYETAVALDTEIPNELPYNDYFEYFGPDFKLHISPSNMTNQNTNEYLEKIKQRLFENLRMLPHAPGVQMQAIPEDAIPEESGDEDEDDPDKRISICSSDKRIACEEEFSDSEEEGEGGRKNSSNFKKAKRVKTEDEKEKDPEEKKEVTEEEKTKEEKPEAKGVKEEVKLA

Consider `COc1ccc(/C=C(/C(=O)NCc2ccc(C(=O)Nc3ccccc3N)cc2)c2ccccc2F)cc1OC` [Compound 28, N-(2-Aminophenyl)-4-((3-(3,4-dimethoxyphenyl)-2-(2-fluorophenyl)acrylamido)methyl)benzamide], for which the GI50 is 1 µM in [1], 0.1 µM in experiment [3], 2.2 µM in [4] and 5.5 µM in experiment [5]. Moreover, the LC50 in experiment [1] was above 100 µM. In addition, the IC (TGI) in [1], in experiment [3] and in experiment [5] was above 100 µM throughout. Moreover, the “Tubulin acetylation (Fold increase)” value is listed as 1.9 Fold increase in experiment [2] (1 μM) and 6.2 Fold increase in [2] (10 μM). Further, in experiment [3], the CC50 is above 100 µM. In addition, the LC50 (concentration giving 50% net cell kill relative to the time-zero cell count) in experiment [5] was above 100 µM. Also, the “P21 induction (Fold increase)” value in [6] (1 μM) is on record as 1.5 Fold increase; in experiment [6] (10 μM), 2.5 Fold increase. The figures for the IC50 in experiment [7] and in experiment [8] were 0.036 µM and 9.5 µM, respectively. For the same compound, the “HDAC inhibition % (1 μM)” value in experiment [8] stood at 41.3%. Also, the “HDAC inhibition % (10 μM)” value in experiment [8] was determined as 65.6%. The results for the “H3 acetylation (Fold increase)” value in [9] (1 μM) and in experiment [9] (10 μM) were 1.1 Fold increase and 5.6 Fold increase, respectively.
`COc1ccc(/C=C(/C(=O)NCc2ccc(C(=O)Nc3ccccc3N)cc2)c2ccc(C)cc2)cc1OC` [Compound 29, N-(2-Aminophenyl)-4-((3-(3,4-dimethoxyphenyl)-2-(4-methylphenyl)acrylamido)methyl)benzamide]: in [1], the GI50 came out at 3.1 µM, the median lethal concentration (LC50) was above 100 µM and the IC (TGI) is above 100 µM. In addition, in experiment [3], the GI50 was determined as 0.3 µM, the CC50 is above 100 µM and the IC (TGI) amounted to 40 µM. Besides, the GI50 in experiment [4] was found to be 4.8 µM. For the same compound, in experiment [5], the GI50 was 11 µM, the LC50 (concentration giving 50% net cell kill relative to the time-zero cell count) was above 100 µM and the IC (TGI) stood at 45 µM. Further, the 50% inhibitory concentration (IC50) in experiment [7] amounted to 0.057 µM. In experiment [8], the “HDAC inhibition % (1 μM)” value worked out at 34.2%; the “HDAC inhibition % (10 μM)” value amounted to 52.8%; the midpoint of inhibition, the IC50, lay at 34 µM.
As to `COc1ccc(/C=C(/C(=O)NCc2ccc(C(=O)Nc3ccccc3N)cc2)c2ccccc2)cc1OC` [Compound 31, N-(2-Aminophenyl)-4-((3-(3,4-dimethoxyphenyl)-2-phenylacrylamido)methyl)benzamide], the 50% growth inhibitory concentration (GI50) in [1] stood at 1.1 µM; in [3], 0.02 µM; in [4] it was 1.6 µM; in experiment [5], 3.8 µM. The LC50 in [1] was above 100 µM. For the same compound, the IC (TGI) in experiment [1] was above 100 µM; in experiment [3], 40 µM; in experiment [5], 50 µM. Further, the “Tubulin acetylation (Fold increase)” value in experiment [2] (1 μM) was 1.2 Fold increase; in experiment [2] (10 μM), 2.1 Fold increase. The CC50 in experiment [3] is above 100 µM. Further, in experiment [5], the LC50 (concentration giving 50% net cell kill relative to the time-zero cell count) was above 100 µM. Also, the results for the “P21 induction (Fold increase)” value in experiment [6] (1 μM) and in [6] (10 μM) were 1.2 Fold increase and 2.8 Fold increase, respectively. Moreover, the half-maximal inhibitory concentration (IC50) in [7] was 0.054 µM; in experiment [8] it was 7.9 µM. In addition, in [8], the “HDAC inhibition % (1 μM)” value is listed as 36.5%. Besides, the “HDAC inhibition % (10 μM)” value in experiment [8] amounted to 65.5%. The “H3 acetylation (Fold increase)” value was 0.9 Fold increase in experiment [9] (1 μM) and 1.7 Fold increase in experiment [9] (10 μM).
Regarding `COc1ccc(/C=C(/C(=O)NCc2ccc(C(=O)Nc3ccccc3N)cc2)c2cccc(F)c2)cc1OC` [Compound 32, N-(2-Aminophenyl)-4-((3-(3,4-dimethoxyphenyl)-2-(3-fluorophenyl)acrylamido)methyl)benzamide], in experiment [1], the GI50 is 1.8 µM, the LC50 is above 100 µM and the IC (TGI) was above 100 µM. In experiment [3], the CC50 was above 100 µM and the IC (TGI) is 100 µM. For the same compound, in experiment [4], the GI50 was determined as 1.3 µM. For the same compound, in [5], the GI50 stood at 2.1 µM, the LC50 (concentration giving 50% net cell kill relative to the time-zero cell count) was above 100 µM and the IC (TGI) stood at 48 µM. For the same compound, the IC50 in experiment [7] stood at 0.052 µM. In addition, in experiment [8], the “HDAC inhibition % (1 μM)” value came to 39.9%, the “HDAC inhibition % (10 μM)” value came to 61.2% and 4.8 µM corresponded to half-maximal inhibition (IC50).
In the case of `CSc1ccc(/C=C(/C(=O)NCc2ccc(C(=O)NO)cc2)c2cccnc2)cc1` [Compound 55, 4-((2-(Pyridin-3-yl)-3-(4-methylthiophenyl)acrylamido)methyl)-N-hydroxybenzamide], in experiment [1], the GI50 was determined as 1 µM, the LC50 was above 100 µM and the IC (TGI) amounted to 39 µM. Further, in experiment [2] (1 μM), the “Tubulin acetylation (Fold increase)” value is 10.4 Fold increase. Besides, the “Tubulin acetylation (Fold increase)” value in [2] (10 μM) is recorded as 11 Fold increase. For the same compound, in experiment [3], the GI50 stood at 1.1 µM, the CC50 was determined as 48 µM and the IC (TGI) amounted to 6.2 µM. In [4], the GI50 turned out to be 0.8 µM. For the same compound, in experiment [5], the GI50 is 0.2 µM, the LC50 (concentration giving 50% net cell kill relative to the time-zero cell count) was found to be 56 µM and the IC (TGI) was found to be 0.4 µM. For the same compound, the “P21 induction (Fold increase)” value in experiment [6] (1 μM) came to 1.3 Fold increase. Also, the “P21 induction (Fold increase)” value in experiment [6] (10 μM) was 2.5 Fold increase. In experiment [8], the “HDAC inhibition % (1 μM)” value is given as 85.7%, the “HDAC inhibition % (10 μM)” value came to 95.1% and the IC50 was 0.02 µM. For the same compound, the “H3 acetylation (Fold increase)” value in [9] (1 μM) is listed as 4.2 Fold increase. The “H3 acetylation (Fold increase)” value in experiment [9] (10 μM) was found to be 7.7 Fold increase.
As for `CS(=O)(=O)c1ccc(/C=C(/C(=O)NCCCCCC(=O)Nc2ccccc2N)c2ccc(F)cc2)cc1` [Compound 97, N-(2-Aminophenyl)-6-(2-(4-fluorophenyl)-3-(4-methylsulfonyllphenyl)acrylamido)hexanamide], in [1], the GI50 worked out at 56 µM, the LC50 is above 100 µM and the IC (TGI) is above 100 µM. Besides, in experiment [3], the GI50 amounted to 6.8 µM, the CC50 was above 100 µM and the IC (TGI) stood at 85 µM. In addition, in experiment [4], the GI50 came out at 23.1 µM. In experiment [5], the GI50 is 6.5 µM, the LC50 (concentration giving 50% net cell kill relative to the time-zero cell count) was found to be 87 µM and the IC (TGI) is 44 µM. Moreover, in [8], the “HDAC inhibition % (1 μM)” value is given as 10.2% and the “HDAC inhibition % (10 μM)” value was determined as 34.2%.
For the compound `O=C(CCCCCNC(=O)NC(=O)/C(=C/c1ccc(F)c(F)c1)c1ccc(F)cc1)NO` [Compound 100], in experiment [1], the GI50 stood at 40 µM, the LC50 stood at 96 µM and the IC (TGI) was 70 µM. In addition, in [3], the GI50 turned out to be 8.8 µM, the CC50 was found to be 82 µM and the IC (TGI) was determined as 46 µM. In experiment [4], the GI50 worked out at 25.6 µM. In experiment [5], the concentration for 50% growth inhibition (GI50) was 28 µM, the LC50 (concentration giving 50% net cell kill relative to the time-zero cell count) amounted to 84 µM and the IC (TGI) came to 62 µM. Moreover, in experiment [8], the “HDAC inhibition % (1 μM)” value came to 77.1% and the “HDAC inhibition % (10 μM)” value worked out at 96.3%.
On to `O=C(CCCCCNC(=O)NC(=O)/C(=C/c1ccccc1)c1ccccc1)NO` [Compound 101], for which, in experiment [1], the GI50 is 10 µM, the LC50 came out at 82 µM and the IC (TGI) is 45 µM. For the same compound, in [3], the GI50 came out at 2.9 µM, the CC50 came out at 13.2 µM and the IC (TGI) came out at 7.6 µM. In experiment [4], the GI50 stood at 6.6 µM. Moreover, in experiment [5], the GI50 is 7 µM, the LC50 (concentration giving 50% net cell kill relative to the time-zero cell count) is 76 µM and the IC (TGI) stood at 35 µM. In addition, in [8], the “HDAC inhibition % (1 μM)” value is given as 89.5%, the “HDAC inhibition % (10 μM)” value came out at 97.1% and half-maximal inhibition (IC50) required 0.07 µM.
